Results taken from ChEMBL document CHEMBL1153890, “Total synthesis and biological evaluation of novel C2-C6 region analogues of dictyostatin” (Bioorg Med Chem, 2009).

Key:
[1] = Growth inhibition of paclitaxel-resistant human NCI/ADR cells after 72 hrs by MTT assay; assay type: functional, cell-based; conditions: NCI/ADR-RES
[2] = system: PANC-1; experiment: Cell cycle arrest in human PANC1 cells assessed as accumulation at G2/M phase at 100 nM after 24 hrs by flow cytometry; assay type: functional
[3] = system: PANC-1; experiment: Cell cycle arrest in human PANC1 cells assessed as accumulation at S phase at 100 nM after 24 hrs by flow cytometry; assay type: functional
[4] = system: PANC-1; experiment: Cell cycle arrest in human PANC1 cells assessed as accumulation at G1 phase at 100 nM after 24 hrs by flow cytometry; assay type: functional
[5] = system: DLD-1; experiment: Growth inhibition of human DLD1 cells after 72 hrs by MTT assay; assay type: functional, cell-based; conditions: DLD-1, 72 h
[6] = system: PANC-1; experiment: Growth inhibition of human PANC1 cells after 72 hrs by MTT assay; assay type: functional, cell-based; conditions: PANC-1, 72 h
[7] = system: ASPC1; experiment: Growth inhibition of human AsPC1 cells after 72 hrs by MTT assay; assay type: functional, cell-based; conditions: ASPC1, 72 h

SMILES: C=C/C=C\[C@H](C)[C@@H]1OC(=O)/C=C\C=C\[C@@H](C)[C@@H](O)C[C@H](O)/C=C\[C@H](C)[C@H](O)[C@@H](C)CCCC[C@@H](O)[C@@H]1C
- IC50 [1]: 1.5 µM

SMILES: C=C/C=C\[C@H](C)[C@@H]1OC(=O)CC/C=C/[C@@H](C)[C@@H](O)C[C@H](O)/C=C\[C@H](C)[C@H](O)[C@@H](C)C[C@@H](C)CC[C@@H](O)[C@@H]1C
- Activity [2]: 75%
- Activity [3]: 17%
- Activity [4]: 9%

SMILES: C=C/C=C\[C@H](C)[C@@H]1OC(=O)/C=C\C=C\C[C@@H](O)C[C@H](O)/C=C\[C@H](C)[C@H](O)[C@@H](C)C[C@@H](C)CC[C@@H](O)[C@@H]1C
- Activity [2]: 76%
- Activity [3]: 17%
- Activity [4]: 8%

SMILES: C=C/C=C\[C@H](C)[C@H](O)[C@@H](C)[C@H]1CC[C@H](C)C[C@H](C)[C@@H](O)[C@@H](C)/C=C\[C@@H](O)C[C@H](O)[C@H](C)/C=C/CCC(=O)O1
- IC50 [5]: 0.93 µM
- IC50 [6]: 1.3 µM
- IC50 [1]: 1.6 µM
- IC50 [7]: 3.1 µM

SMILES: C=C/C=C\[C@H](C)[C@H](O)[C@@H](C)[C@H]1CC[C@H](C)C[C@H](C)[C@@H](O)[C@@H](C)/C=C\[C@@H](O)C[C@H](O)[C@H](C)CCCCC(=O)O1
- IC50 [5]: 1.5 µM
- IC50 [6]: 3.2 µM
- IC50 [1]: 3.1 µM
- IC50 [7]: 4.9 µM

SMILES: C=C/C=C\[C@H](C)[C@@H]1OC(=O)CCCC[C@@H](C)[C@@H](O)C[C@H](O)/C=C\[C@H](C)[C@H](O)[C@@H](C)C[C@@H](C)CC[C@@H](O)[C@@H]1C
- Activity [2]: 84%
- Activity [3]: 9%
- Activity [4]: 6%

SMILES: C=C/C=C\[C@H](C)[C@@H]1OC(=O)/C=C\C=C\[C@@H](C)[C@@H](O)C[C@H](O)/C=C\[C@H](C)[C@H](O)[C@@H](C)C[C@@H](C)CC[C@@H](O)[C@@H]1C [DICTYOSTATIN]
- Activity [2]: 82%
- Activity [3]: 14%
- Activity [4]: 4.2%
